# Assay results published in article PMC8070164 (Biomolecules, 2021).
# Columns and labels:
# [1] = test system: ASIC3; details: ref [16],[17]; cited from earlier work
# Description: (§1) Indeed, several neuropeptides modulate ASICs by directly binding to these ionotropic receptors. For example, dynorphin opioid neuropeptides bind to the acidic pocket of ASIC1a and shift steady-state desensitization curves to higher proton concentrations. RFamide neuropeptides bind to the central vestibule of ASIC3 [14] and delay its desensitization.
# [2] = test system: FMRFamide-activated Na^+ channel (FaNaC); details: cited from earlier work
# Procedure: For example, some DEG/ENaCs from invertebrates are directly gated by neuropeptides. The FMRFamide-activated Na^+ channel (FaNaC) from the snail Helix is activated by the neuropeptide FMRFamide with an EC50 of ~2 μM [9], Hydra Na^+ channels (HyNaCs) are activated by Hydra-RFamides with an EC50 of 0.05–10 μM [10], and the myoinhibitory peptide-gated ion channel (MGIC) from the annelid Platynereis is activated by myoinhibitory peptides with an EC50 of 1–5 μM [11]. Therefore, neuropeptides are attractive candidates also for ASIC agonists. Of note, these peptide-gated ion channels desensitize ...
# [3] = test system: rat ASIC1a; assay: Whole cell patch-clamp in transfected CHO cells (ASIC1a activation); format: cell-based
# Procedure: Chinese hamster ovary (CHO) cells were maintained in Ham’s Nutrient Mixture F12 (Sigma, St. Louis, MI, USA) together with 10% fetal bovine serum (FBS; Sigma, St. Louis, MI, USA) and passaged regularly. Cells were seeded and transfected after 1 day with 1 µg rat ASIC1a cDNA in pCDNA3.1 and 1 µg GFP using X-treme GENE (Sigma, St. Louis, MI, USA). Cells were patched 48 h after transfection.
# We performed whole cell patch-clamp measurements on cultured CHO cells, using patch pipettes of 4–6 MΩ resistance filled with (in mM) 10 NaCl, 121 KCl, 2 MgCl2, 5 EGTA, 10 HEPES, pH 7.25. The bath solution contained (in mM) 128 NaCl, 5.4 KCl, 1 MgCl2, 2 CaCl2, 10 HEPES, pH 7.4 with NaOH. Osmolarity was adjusted with glucose to 280 mOsmol/L for the pipette solution and to 290 mOsmol/L for the extracellular solution. Data were acquired using an Axon Digidata 1440A and an Axon Axopatch 200B and recorded and analyzed using the pClamp Software (Axon Instruments, Molecular Devices, Sunnyvale, San Jose, CA, USA).
# (§2) Rat nocistatin ([…]) has been purchased from ProteoGenix (Schiltigheim, France) with a guaranteed purity of >95%. It was delivered as a lyophilized powder. For measurements with oocytes, it was dissolved in standard bath solution (pH 7.4) to obtain a concentration of 1 mM. This solution was further diluted to 0.5 mM; for one half of this solution, the pH was adjusted to pH 7.4, for the other half it was not adjusted. For measurements with CHO cells, the peptide was dissolved in bath solution to obtain a concentration of 0.25 mM; the pH was adjusted to 7.4. The solutions were freshly prepared before use.
# (A) current trace of a CHO cell transfected with rASIC1a cDNA stimulated with pH 6.0 (black bar) or with rNS (0.25 mM, pH 7.4, green bar) for 10 s. Conditioning pH 7.4. This trace is representative for 6 similar measurements. (B) as in A, ASIC1a-expressing CHO cell was stimulated repetitively with pH 6.0 for 10 s (black bars). rNS (0.25 mM, pH 7.4, green bar) was applied for 10 s prior to pH 6.0 stimulation. This trace is representative for 3 similar measurements.
# [4] = test system: ASIC1a; details: ref [18], cited from earlier work
# Description: as §1, with “desensitization. […] Strikingly, it was reported that the apparent nocistatin affi ...” for “desensitization.”
# [5] = test system: rat ASIC1a; assay: Two electrode voltage-clamp in Xenopus oocytes (ASIC1a activation); format: cell-based
# Procedure: ASIC1a cRNA synthesis and preparation of oocytes was described previously. Briefly, oocytes were removed from anesthetized frogs; frogs were killed after final oocyte collection by decapitation. Animal care and surgery of frogs were conducted under protocols approved by the State Office for Nature, Environment, and Consumer Protection (LANUV) of North Rhine-Westphalia (NRW), Germany, and were performed in accordance with LANUV NRW guidelines. ASIC1a cRNA (0.016 ng) was injected into stage V or VI oocytes. Oocytes were kept in OR-2 medium (in mM, 82 NaCl, 2.5 KCl, 1 Na2HPO4, 4-(2-hydroxyethyl)-1-piperazineethanesulfonic acid (HEPES), 1.0 MgCl2, 1 CaCl2, and 0.5 mg/mL polyvinylpyrrolidone) at 19 °C. Two electrode voltage-clamp measurements were performed as described previously. Whole cell currents were recorded 24–48 h post injection at room temperature (20–25 °C) with a TurboTec 03X amplifier (npi Electronic, Tamm, Germany). Fast solution exchange was performed by a programmable pipetting robot (screening tool; npi Electronic). Data acquisition was controlled using CellWorks 5.1.1 (npi Electronic). Data were filtered at 20 Hz and acquired at 1 kHz. Holding potential was −70 mV. Standard bath solution for two electrode voltage-clamp measurements contained (in mM) 140 NaCl, 1.8 CaCl2, 1 MgCl2, and 10 HEPES.
# as §2
# Similar to the previous study, we expressed rat ASIC1a in Xenopus laevis oocytes and performed two electrode voltage-clamp to study activation of ASIC1a by nocistatin.
# Current trace recorded from a rASIC1a-expressing oocyte stimulated repetitively with pH 6.0 for 20 s (black bars); conditioning pH 7.4 was applied for 60 s. Rat nocistatin (rNS, 0.5 mM) in pH-unadjusted (pH 5.1, red bar) und pH-adjusted (pH 7.4, green bar) conditioning solution was applied for 20 s.
# [6] = pH of bath solution after dissolving nocistatin; format: physicochemical; details: standard bath solution, 10 mM HEPES, initial pH 7.4, standard pH meter
# Procedure: as §2
# We dissolved nocistatin in bath solution containing 10 mM HEPES with a pH of 7.4 (see Methods); this is the same buffer at the same concentration that was previously used in the study reporting activation of ASICs by nocistatin [18]. Nocistatin dissolved readily, but, as expected for a highly acidic peptide with a pI of 3.7, the pH of the solution dropped to pH values between 6.7 and 4.15 when we dissolved nocistatin to obtain a final concentration between 0.25 and 1 mM (Table 1). We titrated nocistatin-containing solutions using NaOH until we reached again neutral pH of 7.4. For comparison, we also tested a solution containing 0.5 mM nocistatin without adjustment of the pH value.
# [7] = test system: ASIC2a; details: ref [18], cited from earlier work
# Procedure: as §1, with “desensitization. […] But ASIC2a has a low proton sensitivity with an EC50 of ~4.0 [21, 22]. Because 1 mM noci ...” for “desensitization.”
# [8] = test system: ASIC3; details: cited from earlier work
# Procedure: as §1, with “desensitization. […] But ASIC2a has a low proton sensitivity with an EC50 of ~4.0 [21, 22]. Because 1 mM noci ...” for “desensitization.”
# [9] = test system: ASIC1b; details: cited from earlier work
# Procedure: as §1, with “desensitization. […] But ASIC2a has a low proton sensitivity with an EC50 of ~4.0 [21, 22]. Because 1 mM noci ...” for “desensitization.”
# [10] = 1 mM nocistatin vs pH 5.5, ref [18]
substance,measurement,setting,value
endomorphin-2,effect on ASIC3 desensitization,[1],slow desensitization of ASIC3
endomorphin-1,effect on ASIC3 desensitization,[1],slow desensitization of ASIC3
FMRFamide,desensitization time constant,"[2]; desensitize only partially and slowly, ref [9],[10],[11]",> 10 s
same,EC50,[2]; ref [9],~2 µM
"MPRVRSVVQARDAEPEADAEPVADEADEVEQKQLQ [nocistatin, endogenous neuropeptide with 35 amino acids; rat nocistatin purchased from ProteoGenix, purity >95%]",ASIC1a current on pH 6.0 application following nocistatin,"[3]; 0.25 mM nocistatin pH 7.4 for 10 s, then pH 6.0 for 10 s, representative for 3 measurements",induced canonical ASIC1a currents
same,current elicited by nocistatin at neutral pH,"[3]; 0.25 mM, pH 7.4, 10 s, conditioning pH 7.4, representative for 6 measurements",elicited no current
same,direct activation of ASIC1a (summary),"[3]; CHO cells, text says up to 500 μM nocistatin",did not directly activate ASIC1a
same,direct agonism,[4]; ASIC1a,direct agonist
same,desensitization kinetics of nocistatin-induced currents,[4]; compared with proton-induced currents,virtually identical to the kinetics of proton-induced currents
same,EC50,[4]; read-out: EC50 (affinity of nocistatin for ASIC1a),~250 µM
same,ASIC1a current on pH 6.0 application immediately after nocistatin at pH 5.1 (desensitization),"[5]; 0.5 mM nocistatin pH 5.1, then pH 6.0, holding potential −70 mV, representative for 5 measurements","did not elicit currents, indicating that ASIC1a was completely desensitized"
same,ASIC current on pH 6.0 application immediately after nocistatin at pH 7.4 (desensitization),"[5]; 0.5 mM nocistatin pH 7.4, then pH 6.0, holding potential −70 mV, representative for 5 measurements",elicited ASIC currents with a full amplitude
same,"ASIC1a current elicited by nocistatin, pH not adjusted","[5]; 0.5 mM, pH 5.1, 20 s, conditioning pH 7.4, holding potential −70 mV, representative for 5 measurements",elicited ASIC1a currents with an amplitude and kinetics similar to the currents elicited by pH 6.0
same,"ASIC1a current elicited by nocistatin, pH adjusted","[5]; 0.5 mM, pH adjusted to 7.4, 20 s, holding potential −70 mV, representative for 5 measurements",elicited no ASIC1a currents
same,direct activation of ASIC1a (summary),"[5]; up to 500 μM nocistatin, Xenopus oocytes",did not directly activate ASIC1a
same,measured pH value after dissolving nocistatin,[6]; 0.25 mM nocistatin,6.7
same,measured pH value after dissolving nocistatin,[6]; 0.5 mM nocistatin,5.1
same,measured pH value after dissolving nocistatin,[6]; 1.0 mM nocistatin,4.15
same,"current amplitude, 1 mM nocistatin compared with acidification from 7.4 to 5.5","[7]; 1 mM nocistatin vs acidification from 7.4 to 5.5, ASIC2a",eight times larger current amplitudes
same,activation by 1 mM nocistatin,"[7]; 1 mM, ASIC2a",activated
same,direct agonism,[7]; ASIC2,direct agonist
same,"current amplitude, 1 mM nocistatin compared with pH 5.5",[8]; [10],similar
same,activation by 1 mM nocistatin,"[8]; 1 mM, ref [18]",activated
same,direct agonism,[8]; ref [18],direct agonist
same,"current amplitude, 1 mM nocistatin compared with pH 5.5",[9]; [10],similar
same,activation by 1 mM nocistatin,"[9]; 1 mM, ref [18]",activated
same,direct agonism,[9]; ref [18],direct agonist
